Results on 14 compounds are retold here after patent publication EP4678638A1, “NEW E3 UBIQUITIN LIGASE LIGAND, PROTEIN DEGRADATION AGENT AND USE THEREOF” (priority 2023, dated 2024).

The experiment deals with H1975. The experiment in a line: CCK-8 proliferation, NCI-H1975 (H1975). The format is cell-based, Human. Conditions: Homo sapiens, NCI-H1975; CCK-8; 96 hours; read-out: Inhibitory activity (IC50) on tumor cell proliferation, H1975. The protocol: The tumor cells used herein were cultured in a cell culture medium listed in table A1 at 37°C in an incubator with 5% CO2. Prior to experimentation, all cell lines used were correctly identified by STR profiling, and tested negative for mycoplasma contamination using a mycoplasma detection kit through routine screenings. Table A1. Tumor cells and cell culture medium used in the present disclosure
IC50 values of the compounds of the present disclosure (including the compounds in Table 1, and compounds of examples) were measured using the Meilun Cell Counting Kit-8 kit from Dalian Meilun Biotech Co., Ltd. Assay details are as follows: tumor cells were seeded in a 96-well plate at a density listed in Table A2. After 24h, 100 µL of the inoculated cells were treated with 0.5µL of the compounds of the present disclosure (including the compounds in Tables 1 and 2, and compounds of examples) at 10 different successively decreasing concentrations (starting at the highest concentration of 10µM; 5-fold serial dilutions). After the cells were treated with the compounds of the present disclosure for a period of time, the cell viability detection reagent was added to the culture medium for cell viability assessment according to the instructions provided with the CCK-8 kit. […] The growth inhibition of the compounds of the present disclosure on cells was plotted by Prism Graphpad software, and the IC50 values of the compounds of the present disclosure were calculated therefrom. […] Seeding protocol and treatment time for tumor cells

In the case of `CN(Cc1cccc(N2CCC(=O)NC2=O)c1)C1CCN(c2ccc(-c3cc(F)c4c(c3)C(=O)N(C(C(=O)Nc3nccs3)c3ncn5c3CCC5)C4)cc2)CC1` (centres unmarked) [GT-05281, 2-(6,7-dihydro-5H-pyrrolo[1,2-c]imidazol-1-yl)-2-(6-(4-(4-((3-(2,4-dioxotetrahydropyrimidin-1(2H)-yl)benzyl)(methyl)amino)piperidin-1-yl)phenyl)-4-fluoro-1-oxoisoindolin-2-yl)-N-(thiazol-2-yl)acetamide], the IC50 lay in the range of 1 to 10 nM.
In the case of `CN(Cc1ccc(N2CCC(=O)NC2=O)cn1)C1CCN(c2ccc(-c3cc(F)c4c(c3)C(=O)N(C(C(=O)Nc3nccs3)c3ncn5c3CCC5)C4)cc2)CC1` (centres unmarked) [GT-05282, 2-(6,7-dihydro-5H-pyrrolo[1,2-c]imidazol-1-yl)-2-(6-(4-(4-(((5-(2,4-dioxotetrahydropyrimidin-1(2H)-yl)pyridin-2-yl)methyl)(methyl)amino)piperidin-1-yl)phenyl)-4-fluoro-1-oxoisoindolin-2-yl)-N-(thiazol-2-yl)acetamide] it was 1 to 10 nM; in that of `CN(Cc1ccc(N2CCC(=O)NC2=O)nc1)C1CCN(c2ccc(-c3cc(F)c4c(c3)C(=O)N(C(C(=O)Nc3nccs3)c3ncn5c3CCC5)C4)cc2)CC1` (centres unmarked) [GT-05283, 2-(6,7-dihydro-5H-pyrrolo[1,2-c]imidazol-1-yl)-2-(6-(4-(4-(((6-(2,4-dioxotetrahydropyrimidin-1(2H)-yl)pyridin-3-yl)methyl)(methyl)amino)piperidin-1-yl)phenyl)-4-fluoro-1-oxoisoindolin-2-yl)-N-(thiazol-2-yl)acetamide], 1 to 10 nM.
In the case of `O=C1CCC(c2ccc(CN3C[C@H]4C[C@@H]3CN4c3ccc(-c4cc(F)c5c(c4)C(=O)N(C(C(=O)Nc4nccs4)c4ncn6c4CCC6)C5)cc3)cc2)C(=O)N1` (stereo partly drawn) [GT-06176, 2-(6,7-dihydro-5H-pyrrolo[1,2-c]imidazol-1-yl)-2-(6-(4-((1R,4R)-5-(4-(2,6-dioxopiperidin-3-yl)benzyl)-2,5-diazabicyclo[2.2.1]heptan-2-yl)phenyl)-4-fluoro-1-oxoisoindolin-2-yl)-N-(thiazol-2-yl)acetamide] it was 1 to 10 nM; in that of `O=C1CCC(Nc2cccc(CN3C[C@H]4C[C@@H]3CN4c3ccc(-c4cc(F)c5c(c4)C(=O)N(C(C(=O)Nc4nccs4)c4ncn6c4CCC6)C5)cc3)c2)C(=O)N1` (stereo partly drawn) [GT-06179, 2-(6,7-dihydro-5H-pyrrolo[1,2-c]imidazol-1-yl)-2-(6-(4-((1R,4R)-5-(3-((2,6-dioxopiperidin-3-yl)amino)benzyl)-2,5-diazabicyclo[2.2.1]heptan-2-yl)phenyl)-4-fluoro-1-oxoisoindolin-2-yl)-N-(thiazol-2-yl)acetamide], 10 to 50 nM.
On to `O=C1CCN(c2ccc(CN3C[C@H]4C[C@@H]3CN4c3ccc(-c4cc(F)c5c(c4)C(=O)N(C(C(=O)Nc4nccs4)c4ncn6c4CCC6)C5)cc3)cn2)C(=O)N1` (stereo partly drawn) [GT-06191, 2-(6,7-dihydro-5H-pyrrolo[1,2-c]imidazol-1-yl)-2-(6-(4-((1R,4R)-5-((6-(2,4-dioxotetrahydropyrimidin-1(2H)-yl)pyridin-3-yl)methyl)-2,5-diazabicyclo[2.2.1]heptan-2-yl)phenyl)-4-fluoro-1-oxoisoindolin-2-yl)-N-(thiazol-2-yl)acetamide], for which the IC50 lay in the range of 1 to 10 nM.
In the case of `O=C1CCC(c2ccc(CN3C4CCC3CN(c3ccc(-c5cc(F)c6c(c5)C(=O)N(C(C(=O)Nc5nccs5)c5ncn7c5CCC7)C6)cc3)C4)cc2)C(=O)N1` (centres unmarked) [GT-06252, 2-(6,7-dihydro-5H-pyrrolo[1,2-c]imidazol-1-yl)-2-(6-(4-(8-(4-(2,6-dioxopiperidin-3-yl)benzyl)-3,8-diazabicyclo[3.2.1]octan-3-yl)phenyl)-4-fluoro-1-oxoisoindolin-2-yl)-N-(thiazol-2-yl)acetamide] it was 1 to 10 nM.
In the case of `O=C1CCN(c2ccc(CN3C4CCC3CN(c3ccc(-c5cc(F)c6c(c5)C(=O)N(C(C(=O)Nc5nccs5)c5ncn7c5CCC7)C6)cc3)C4)nc2)C(=O)N1` (centres unmarked) [GT-06255, 2-(6,7-dihydro-5H-pyrrolo[1,2-c]imidazol-1-yl)-2-(6-(4-(8-((5-(2,4-dioxotetrahydropyrimidin-1(2H)-yl)pyridin-2-yl)methyl)-3,8-diazabicyclo[3.2.1]octan-3-yl)phenyl)-4-fluoro-1-oxoisoindolin-2-yl)-N-(thiazol-2-yl)acetamide] it was 1 to 10 nM; in that of `O=C1CCN(c2ccc(CN3CCC(N4CCN(c5ccc(-c6cc(F)c7c(c6)C(=O)N(C(C(=O)Nc6nccs6)c6ncn8c6CCC8)C7)cc5)CC4)CC3)cc2)C(=O)N1` (centres unmarked) [GT-06327, 2-(6,7-dihydro-5H-pyrrolo[1,2-c]imidazol-1-yl)-2-(6-(4-(4-(1-(4-(2,4-dioxotetrahydropyrimidin-1(2H)-yl)benzyl)piperidin-4-yl)piperazin-1-yl)phenyl)-4-fluoro-1-oxoisoindolin-2-yl)-N-(thiazol-2-yl)acetamide], 1 to 10 nM; in that of `O=C1CCN(c2cccc(CN3CCC(N4CCN(c5ccc(-c6cc(F)c7c(c6)C(=O)N(C(C(=O)Nc6nccs6)c6ncn8c6CCC8)C7)cc5)CC4)CC3)c2)C(=O)N1` (centres unmarked) [GT-06328, 2-(6,7-dihydro-5H-pyrrolo[1,2-c]imidazol-1-yl)-2-(6-(4-(4-(1-(3-(2,4-dioxotetrahydropyrimidin-1(2H)-yl)benzyl)piperidin-4-yl)piperazin-1-yl)phenyl)-4-fluoro-1-oxoisoindolin-2-yl)-N-(thiazol-2-yl)acetamide], 1 to 10 nM.
In the case of `O=C1CCN(c2cc(CN3CCN(c4ccc(-c5cc(F)c6c(c5)C(=O)N(C(C(=O)Nc5nccs5)c5ncn7c5CCC7)C6)cc4)CC3)c(F)cn2)C(=O)N1` (centres unmarked) [GT-07378, 2-(6,7-dihydro-5H-pyrrolo[1,2-c]imidazol-1-yl)-2-(6-(4-(4-((2-(2,4-dioxotetrahydropyrimidin-1(2H)-yl)-5-fluoropyridin-4-yl)methyl)piperazin-1-yl)phenyl)-4-fluoro-1-oxoisoindolin-2-yl)-N-(thiazol-2-yl)acetamide] it was 1 to 10 nM.
Consider `O=C1CCN(c2cc(CN3CCN(c4ccc(-c5cc(F)c6c(c5)C(=O)N(C(C(=O)Nc5nccs5)c5ncn7c5CCC7)C6)cc4)CC3)ccn2)C(=O)N1` (centres unmarked) [GT-07379, 2-(6,7-dihydro-5H-pyrrolo[1,2-c]imidazol-1-yl)-2-(6-(4-(4-((2-(2,4-dioxotetrahydropyrimidin-1(2H)-yl)pyridin-4-yl)methyl)piperazin-1-yl)phenyl)-4-fluoro-1-oxoisoindolin-2-yl)-N-(thiazol-2-yl)acetamide], for which the IC50 lay within 1 to 10 nM.
Under `O=C1CCN(c2cncc(CN3CCN(c4ccc(-c5cc(F)c6c(c5)C(=O)N(C(C(=O)Nc5nccs5)c5ncn7c5CCC7)C6)cc4)CC3)c2)C(=O)N1` (centres unmarked) [GT-07380, 2-(6,7-dihydro-5H-pyrrolo[1,2-c]imidazol-1-yl)-2-(6-(4-(4-((5-(2,4-dioxotetrahydropyrimidin-1(2H)-yl)pyridin-3-yl)methyl)piperazin-1-yl)phenyl)-4-fluoro-1-oxoisoindolin-2-yl)-N-(thiazol-2-yl)acetamide] stands 1 to 10 nM.
As for `O=C1CCC(c2ccc(CN3CCN(c4ccc(-c5cc(F)c6c(c5)C(=O)N(C(C(=O)Nc5nccs5)c5ncn7c5CCC7)C6)cc4)CC3)nc2)C(=O)N1` (centres unmarked) [GT-07381, 2-(6,7-dihydro-5H-pyrrolo[1,2-c]imidazol-1-yl)-2-(6-(4-(4-((5-(2,6-dioxopiperidin-3-yl)pyridin-2-yl)methyl)piperazin-1-yl)phenyl)-4-fluoro-1-oxoisoindolin-2-yl)-N-(thiazol-2-yl)acetamide], the IC50 is 1 to 10 nM.
